{"source": "patent US11058659B2", "about": "“Methods and compositions for the treatment of ophalmic diseases and disorders” (UNIVERSITY OF SOUTHERN CALIFORNIA, priority 2013, dated 2021)", "key": {"VEGF receptor 2": {"test_system": "VEGF receptor 2", "assay": "RT-PCR of CNV lesions after treatment: VEGF receptor 2", "format": "in vivo", "method": "(§1) FIG. 7. RT-PCR Data of CNV after treatment. Reduced expression of pro-angiogenic and pro-inflammatory proteins upon treatment with compound 18.\n(§2) Compound 18 was prepared using methods known in the art. (For example, see U.S. Pat. Nos. 8,115,023, and 7,683,193). […] (FIG. 3). On Day 7, retinal edema and angiogenesis between the two treatment groups were similar."}, "cyclooxygenase-2 (COX-2)": {"test_system": "cyclooxygenase-2 (COX-2)", "assay": "RT-PCR of CNV lesions after treatment: COX-2", "format": "in vivo", "method": "as §1, §2"}, "[1]": {"test_system": "human mammary endothelial cells (HMEC)", "assay": "tube formation assay (HMEC cultured in Geltrex)", "format": "cell-based", "settings": "24 hours, concentration escalation, at greater than 100 nM, compared to untreated or no Geltrex", "method": "FIG. 1. Inhibition of angiogenesis by compound 18 in a dose-dependent manner—Effect on tube formation. The effect of Compound 18 was evaluated using tube formation assay using a concentration escalation design.\nas §2"}, "CNV lesions": {"test_system": "CNV lesions", "assay": "choroidal neovascularization (CNV) model of age-related macular degeneration (AMD), laser induced lesions supplemented with VEGF", "format": "in vivo", "settings": "for CNV lesion number: week 4 of therapy, vs vehicle control; for vessels and edema in the CNV lesions (retinal angiography): by week 4, vs vehicle", "method": "FIG. 4. Effect of compound 18 in a choroidal neovascularization (CNV) model of age-related macular degeneration (AMD). (A) Study Design: Simultaneous treatment model. Choroidal neovascularization (CNV) model, was used to determine its effect on new blood vessel formation. In this figure, laser induced lesions were further supplemented with 10 μg VEGF intravitreal administration every two weeks. Laser induced AMD lesions penetrated the Bruch's membrane. CNV lesions were treated with 0.5 mg compound 18 administered weekly, where first dosage was given at the time of CNV lesion formation. (B) Results.\nFIG. 5. Effect of compound 18 in a choroidal neovascularization (CNV) model of age-related macular degeneration (AMD) A) Study Design: Sequential treatment model. CNV model was used to determine compound 18's effect on new blood vessel formation. Laser induced lesions were supplemented with 10 μg VEGF intravitreal administration every two weeks. CNV lesions were treated with 0.5 mg compound 18 administered weekly, were given one week after CNV lesion formation. (B) Results.\nFIG. 6. Quantification of the Lesion Number and Mean Area. CNV lesions were enumerated at baseline, 2 and 4 weeks after CNV lesion formation. (A) Lesion Number. […] (B) Mean Area.\nFIG. 8. Optical Coherence Tomography (OCT) of CNV Lesions Over Time. OCT was used to evaluate CNV lesion healing after compound 18 treatment.\nFIG. 9. Confocal Scanning Fluorescent Microscope of CNV Lesions. Confocal scanning fluorescent microscopy is used to visualize the level of neovascular growth. In the vehicle treated lesions (Left), extensive neovascular growth is noted after one month.\nFIG. 10. Confocal Scanning Electron Microscopy of CNV lesions treated with vehicle (Left) was compared with compound 18 treatment (Right).\nas §2"}, "[2]": {"test_system": "VEGF-induced angiogenesis", "assay": "VEGF-induced angiogenesis in a rabbit eye model", "format": "in vivo", "method": "FIG. 2. Inhibition of angiogenesis by compound 18 in a dose-dependent manner—Effect on VEGF-induced angiogenesis in a rabbit eye model. (A) Study design. To evaluate the impact of compound 18, 10 μg of VEGF in each eye is administered as an intravitreal injection. In this study, the activity of compound 18 is evaluated in a concentration escalation manner from 0.125 to 0.5 mg given as a single dosage. A formulation of compound 18 where the dosage is admixed in a total of 50 μL, was administered immediately after VEGF administration. (B) Results.\nFIG. 3. Comparison of compound 18 with bevacizumab (Avastin)—Effect on VEGF-induced angiogenesis in a rabbit eye model. The potency of compound 18 was compared with bevacizumab. (A) Study design. Using a VEGF-induction eye model, where 10 μg of VEGF is injected as an intravitreal administration. One dose of 0.5 mg of compound 18 was compared with 1.25 mg bevacizumab after VEGF induction. (B) Results. […] On Day 7, retinal edema and angiogenesis between the two treatment groups were similar.\nas §2"}, "[3]": {"settings": "Day 7, 10 μg VEGF intravitreal, one dose"}}, "note": "Entries after “also recorded” stand apart in the source; their conditions may differ.", "data": [{"compound": "CCCCC[C@@H](O)/C=C/c1cccc(/C=C/[C@@H](O)[C@@H](O)CCCC(=O)OC)c1", "note": "[Compound 18]", "values": [{"measurement": "expression of VEGF receptor 2 (RT-PCR)", "setting": "VEGF receptor 2; sequential (SQ) treatment", "result": "significantly reduced the expression"}, {"measurement": "expression of VEGF receptor 2 (RT-PCR)", "setting": "VEGF receptor 2; simultaneous (SM) treatment", "result": "significantly reduced the expression"}, {"measurement": "expression of cyclooxygenase-2 (COX-2) (RT-PCR)", "setting": "cyclooxygenase-2 (COX-2); sequential (SQ) treatment", "result": "significantly reduced the expression"}, {"measurement": "expression of cyclooxygenase-2 (COX-2) (RT-PCR)", "setting": "cyclooxygenase-2 (COX-2); simultaneous (SM) treatment", "result": "significantly reduced the expression"}, {"measurement": "inhibition of tube formation (angiogenesis)", "setting": "[1]", "result": "able to inhibit angiogenesis in a dose-response manner; also recorded: notable inhibition of tube formation"}, {"measurement": "neovascular growth in CNV lesions (confocal scanning fluorescent microscopy)", "setting": "CNV lesions; after one month, vs vehicle treated lesions", "result": "significant reduction in neovascular growth"}, {"measurement": "CNV lesion healing by Optical Coherence Tomography (OCT)", "setting": "CNV lesions; same lesion evaluated at 2 weeks and 4 weeks", "result": "able to promote healing of a lesion"}, {"measurement": "mean CNV area", "setting": "CNV lesions; sequential (SQ) treatment", "result": "reduction in the mean CNV area"}, {"measurement": "CNV lesion number", "setting": "CNV lesions; sequential (SQ) treatment", "result": "significantly reduced CNV lesion"}, {"measurement": "vessels and edema in the CNV lesions (retinal angiography)", "setting": "CNV lesions; sequential treatment model, 0.5 mg weekly starting one week after lesion formation", "result": "statistically significant reduction in the vessels and edema"}, {"measurement": "mean CNV area", "setting": "CNV lesions; simultaneous (SM) treatment", "result": "reduction in the mean CNV area"}, {"measurement": "CNV lesion number", "setting": "CNV lesions; simultaneous (SM) treatment", "result": "significantly reduced CNV lesion"}, {"measurement": "vessels and edema in the CNV lesions (retinal angiography)", "setting": "CNV lesions; simultaneous treatment model, 0.5 mg weekly from time of lesion formation", "result": "statistically significant reduction in the vessels and edema"}, {"measurement": "morphology of CNV lesions (Confocal Scanning Electron Microscopy)", "setting": "CNV lesions; vs vehicle (neovascular growth penetrating the Bruch's membrane)", "result": "thin-walled fenestrated vascular channels with flat configuration"}, {"measurement": "activity profile vs Avastin", "setting": "[2]; 0.5 mg compound 18 vs 1.25 mg Avastin, Day 3 and Day 7 findings", "result": "comparable or improved activity profile vs Avastin"}, {"measurement": "retinal edema and angiogenesis, 0.5 mg compound 18 compared to 1.25 mg bevacizumab", "setting": "[2]; Day 3, 10 μg VEGF intravitreal, one dose", "result": "significantly lower retinal edema and angiogenesis"}, {"measurement": "retinal edema and angiogenesis between the two treatment groups (0.5 mg compound 18 vs 1.25 mg bevacizumab)", "setting": "[2]; [3]", "result": "similar"}, {"measurement": "level of retinal edema and angiogenesis vs vehicle", "setting": "[2]; Day 7, 10 μg VEGF intravitreal, single dose, doses >0.25 mg (0.125 to 0.5 mg tested)", "result": "significantly reduced"}]}, {"compound": "bevacizumab: FDA-approved anti-VEGF antibody injected intravitreally [reference compound]", "values": [{"measurement": "retinal edema and angiogenesis between the two treatment groups (0.5 mg compound 18 vs 1.25 mg bevacizumab)", "setting": "[2]; [3]", "result": "similar"}]}]}
